Experiments:
patients with early RA [1] = assay: OPTIMA genetic substudy: ACR20/50/70 response at Week 26; assay type: in vivo, human; conditions: Week 26
Source text: (§1) The objective of the study was to prospectively analyze the association of 3 genetic risk factors (HLA-DRB1 shared epitope (SE), FcγRIIb, and IL-4R) for severe RA with clinical disease activity after 26 weeks of combination therapy with adalimumab (ADA) and methotrexate (MTX) or MTX monotherapy in a substudy of OPTIMA (A Multicentre, Randomized, Double Period, Double-Blind Study to Determine the Optimal Protocol for Treatment Initiation With Methotrexate and Adalimumab Combination Therapy in Patients With Early Rheumatoid Arthritis).
(§2) OPTIMA is an ongoing 78-week study with 26- and 52-week periods. Eligible patients had RA<1 year (1987-revised ACR classification), 28-joint Disease Activity Score (DAS28)>3.2, ≧6 swollen joints […], and ≧8 tender joints (SSJC66≧8). Patients had elevated erythrocyte sedimentation rate (ESR)≧28 mm/h or C-reactive protein (CRP)≧1.5 mg/dL and ≧1 of the following: >1 erosion, rheumatoid-factor positive (RF+), or anti-cyclic citrullinated peptide antibody positive (anti-CCP+). Exclusion criteria included prior exposure to systemic anti-TNF therapies, treatment with MTX or >2 disease-modifying anti-rheumatic drugs (DMARDs), other acute inflammatory joint diseases, or steroidal or surgical treatment within 4 weeks or 2 months, respectively.
(§3) In Period 2, those combination therapy responders, e.g., meeting DAS28 low disease activity (LDA) criteria (DAS28<3.2), were re-randomized 1:1 to remain on ADA+MTX or to “step down” to PBO+MTX for Weeks 26-78. In the initial PBO+MTX monotherapy group, subjects who achieved DAS28 LDA after Period 1 remained blinded on PBO+MTX for Period 2. […] Genetic data were associated with Week-26 clinical response.
(§4) For clinical assessment, the percentage of subjects achieving a 20%, 50%, and 70% improvement from baseline ACR scores was determined after Week 26 using a non-responder imputation approach. DAS28(CRP)^1 scores were evaluated at Week 26. The proportion of subjects achieving LDA (DAS28<3.2) and remission criteria (DAS28<2.6) was determined using a non-responder imputation approach.
(§5) For statistical analyses, Allele distribution between treatment groups was evaluated using the chi-square test, or Fisher's exact test in cases where data were sparse. The chi-square test was used to compare the proportion of subject achieving ACR20/50/70 and DAS28 LDA (<3.2) or remission (<2.6) within and between treatment groups.
(§6) MTX-naïve patients were randomized 1:1 to ADA (40 mg eow)+MTX (titrated to 20 mg/wk by Week 8) or placebo (PBO)+MTX for the first 26 weeks.
(§7) The percentage of subjects achieving a 50% improvement in the ACR score from baseline was determined at Week 26 using a non-responder imputation approach. The percentage of subjects achieving DAS28(CRP) remission (DAS28<2.6) was determined at Week 26 using a non-responder imputation approach.
(§8) Allele distribution between treatment groups was evaluated using the chi-square test, or Fisher's exact test in cases where data were sparse. Multivariate logistic regression was used to evaluate the effect of treatment, individual alleles, the interaction between treatment and genetic components, and baseline demographics and disease characteristics on clinical responses at 26 weeks.
(§9) MTX-naïve pts ≧18 years old with RA<1 year and active disease (DAS28>3.2, ESR≧28 mm/h or CRP≧1.5 mg/dL), and either >1 erosions, RF+, or anti-CCP+ were randomized to ADA+MTX (N=515) or PBO+MTX (N=517) for 26 wks. This analysis presents clinical outcomes at 26 weeks by HLA-DRB1 SE copy number (0×, 1×, or 2×), IL-4R I50V (AA, AG, or GG), and FcγRIIb I232T (TT, TC, CC) alleles. Non-responder imputation was used to calculate the percent of patients achieving ACR20/50/70 and DAS28 low disease activity (LDA, DAS28<3.2) and remission (DAS28<2.6). Multiple logistic regression was used to assess the influence of potential confounding baseline variables. […]

patients with early RA [2] = assay: OPTIMA genetic substudy: DAS28 low disease activity (<3.2) and remission (<2.6) at Week 26; assay type: in vivo, human
Source text: as §1, §2, §3, §4, §5, §6, §7, §8, §9

**Q.** Which results are given for `CN(Cc1cnc2nc(N)nc(N)c2n1)c1ccc(C(=O)N[C@@H](CCC(=O)O)C(=O)O)cc1` [PBO + MTX, methotrexate]?
**A.** ACR20 response, n/N subjects (patients with early RA [1]; HLA-DRB1 SE 2 copies): 36/69; ACR50 response rate, % subjects (patients with early RA [1]; HLA-DRB1 SE 2 copies): (29%); ACR50 response, n/N subjects (patients with early RA [1]; HLA-DRB1 SE 2 copies): 20/69; ACR70 response rate, % subjects (patients with early RA [1]; HLA-DRB1 SE 2 copies): (13%); ACR70 response, n/N subjects (patients with early RA [1]; HLA-DRB1 SE 2 copies): 9/69; ACR50 response rate, % subjects (patients with early RA [1]; HLA-DRB1 SE 2 copies, listed as MTX): 29%; ACR50 response rate, % subjects (patients with early RA [1]; IL-4R AA): (35%); ACR50 response, n/N subjects (patients with early RA [1]; IL-4R AA): 45/130; ACR70 response rate, % subjects (patients with early RA [1]; IL-4R AA): (13%); ACR70 response, n/N subjects (patients with early RA [1]; IL-4R AA): 17/130; ACR50 response rate, % subjects (patients with early RA [1]; IL-4R AG): (34%); ACR50 response, n/N subjects (patients with early RA [1]; IL-4R AG): 79/233; ACR70 response rate, % subjects (patients with early RA [1]; IL-4R AG): (19%); ACR70 response, n/N subjects (patients with early RA [1]; IL-4R AG): 42/233; ACR50 response rate, % subjects (patients with early RA [1]; IL-4R GG): (38%); ACR50 response, n/N subjects (patients with early RA [1]; IL-4R GG): 33/88; ACR70 response rate, % subjects (patients with early RA [1]; IL-4R GG): (18%); ACR70 response, n/N subjects (patients with early RA [1]; IL-4R GG): 16/88; LDA DAS28 <3.2, % subjects (patients with early RA [2]; HLA-DRB1 SE 0 copies): (30%); LDA DAS28 <3.2, n/N subjects (patients with early RA [2]; HLA-DRB1 SE 0 copies): 49/167; Remission DAS28 <2.6, % subjects (patients with early RA [2]; HLA-DRB1 SE 0 copies): (17%); Remission DAS28 <2.6, n/N subjects (patients with early RA [2]; HLA-DRB1 SE 0 copies): 28/167; LDA DAS28 <3.2, % subjects (patients with early RA [2]; HLA-DRB1 SE 1 copy): (23%); LDA DAS28 <3.2, n/N subjects (patients with early RA [2]; HLA-DRB1 SE 1 copy): 50/215; Remission DAS28 <2.6, % subjects (patients with early RA [2]; HLA-DRB1 SE 1 copy): (16%); Remission DAS28 <2.6, n/N subjects (patients with early RA [2]; HLA-DRB1 SE 1 copy): 35/215; LDA DAS28 <3.2, % subjects (patients with early RA [2]; HLA-DRB1 SE 2 copies): (24%); LDA DAS28 <3.2, n/N subjects (patients with early RA [2]; HLA-DRB1 SE 2 copies): 16/69; Remission DAS28 <2.6, % subjects (patients with early RA [2]; HLA-DRB1 SE 2 copies): (16%); Remission DAS28 <2.6, n/N subjects (patients with early RA [2]; HLA-DRB1 SE 2 copies): 11/69; LDA DAS28 <3.2, % subjects (patients with early RA [2]; IL-4R AA): (24%); LDA DAS28 <3.2, n/N subjects (patients with early RA [2]; IL-4R AA): 31/130; Remission DAS28 <2.6, % subjects (patients with early RA [2]; IL-4R AA): (14%); Remission DAS28 <2.6, n/N subjects (patients with early RA [2]; IL-4R AA): 18/130; LDA DAS28 <3.2, % subjects (patients with early RA [2]; IL-4R AG): (25%); LDA DAS28 <3.2, n/N subjects (patients with early RA [2]; IL-4R AG): 58/233; Remission DAS28 <2.6, % subjects (patients with early RA [2]; IL-4R AG): (16%); Remission DAS28 <2.6, n/N subjects (patients with early RA [2]; IL-4R AG): 37/233; LDA DAS28 <3.2, % subjects (patients with early RA [2]; IL-4R GG): (30%); LDA DAS28 <3.2, n/N subjects (patients with early RA [2]; IL-4R GG): 26/88; Remission DAS28 <2.6, % subjects (patients with early RA [2]; IL-4R GG): (22%); Remission DAS28 <2.6, n/N subjects (patients with early RA [2]; IL-4R GG): 19/88

Reference: US20120014956A1, “METHODS AND COMPOSITIONS FOR PREDICTING RESPONSIVENESS TO TREATMENT WITH TNF-ALPHA INHIBITOR” (priority 2010, published 2012)
